The text below walks through data of publication PMC6026185 (Scientific Reports, 2018).

Where two headings read alike, the source gives them in different places.

One data set has as its system mNKCC2 isoform F. Also noted: method as in ref Payne et al.[57]; Isenring et al.[58]; Plata et al.[59]; Carota et al.[56]; Lykke et al.[60]; Lykke et al.[29]. Particulars: Xenopus oocytes; ref Payne et al.[57]; Isenring et al.[58]; Plata et al.[59]; Carota et al.[56]; Lykke et al.[60]; Lykke et al.[29]; read-out: IC50 (µM) NKCC2 (mF); cited from earlier work.
The test system of a further data set is NKCC1. Particulars: Activated state; isoforms not differentiated; turkey erythrocytes; mIMCD-K2 cells; chick cardiac cells; winter flounder intestine; rat erythrocytes and thymocytes; ref Palfrey et al.[48]; Schlatter et al.[23]; Frelin et al.[49]; O’Grady et al.[50]; Glanville et al.[51]; Hannaert et al.[52]; cited from earlier work.
The target in data set [1] is T1, hNKCC1A (Homo sapiens, UniProt P55011).
T1 construct: Full-length NKCC1 (NKCC1A) comprises ~1200 amino acids; expressed in transfected cells; host or cells: Xenopus laevis oocytes injected with cRNA (pXOOM vector)
T1 sequence (P55011 1-1212): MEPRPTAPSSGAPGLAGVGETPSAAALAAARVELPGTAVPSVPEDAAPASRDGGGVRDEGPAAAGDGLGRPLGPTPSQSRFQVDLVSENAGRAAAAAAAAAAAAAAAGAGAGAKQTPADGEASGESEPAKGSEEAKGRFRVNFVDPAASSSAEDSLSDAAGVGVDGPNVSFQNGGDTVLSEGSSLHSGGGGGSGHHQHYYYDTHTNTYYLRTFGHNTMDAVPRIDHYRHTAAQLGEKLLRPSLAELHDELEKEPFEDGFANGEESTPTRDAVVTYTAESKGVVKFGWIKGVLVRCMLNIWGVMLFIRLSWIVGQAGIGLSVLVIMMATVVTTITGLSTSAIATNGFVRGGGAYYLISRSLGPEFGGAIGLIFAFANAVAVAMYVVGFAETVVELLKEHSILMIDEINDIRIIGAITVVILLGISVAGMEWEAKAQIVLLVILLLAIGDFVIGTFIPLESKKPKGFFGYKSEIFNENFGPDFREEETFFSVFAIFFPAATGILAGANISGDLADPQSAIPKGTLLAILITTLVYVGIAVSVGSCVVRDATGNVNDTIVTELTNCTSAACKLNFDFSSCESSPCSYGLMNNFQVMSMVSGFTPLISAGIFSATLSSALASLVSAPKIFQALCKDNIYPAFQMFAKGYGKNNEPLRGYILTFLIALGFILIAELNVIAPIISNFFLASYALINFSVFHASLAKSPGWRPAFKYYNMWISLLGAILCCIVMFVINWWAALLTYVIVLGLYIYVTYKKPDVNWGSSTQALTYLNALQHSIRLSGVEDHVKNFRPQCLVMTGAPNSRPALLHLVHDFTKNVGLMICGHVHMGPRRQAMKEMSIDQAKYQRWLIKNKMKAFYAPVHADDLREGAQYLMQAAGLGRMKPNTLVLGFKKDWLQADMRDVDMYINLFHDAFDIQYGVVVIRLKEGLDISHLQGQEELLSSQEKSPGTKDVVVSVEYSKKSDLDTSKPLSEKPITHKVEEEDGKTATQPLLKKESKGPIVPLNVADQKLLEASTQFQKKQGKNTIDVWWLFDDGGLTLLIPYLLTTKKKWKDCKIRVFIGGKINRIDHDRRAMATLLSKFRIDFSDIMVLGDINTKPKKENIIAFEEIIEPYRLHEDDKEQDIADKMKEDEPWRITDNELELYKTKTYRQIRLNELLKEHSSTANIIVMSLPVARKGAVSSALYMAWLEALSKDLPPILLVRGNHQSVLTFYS
Nature of the data set: 86Rb+ uptake in hNKCC1A-expressing Xenopus laevis oocytes. It counts as cell-based. Particulars: 86Rb+ uptake, Xenopus oocytes, 5 min, corrected for uninjected oocytes; median and range of 3–7 experiments.
Method: The oocytes were kept in Kulori medium (in mM: 90 NaCl, 1 KCl, 1 CaCl2, 1 MgCl2, 5 Hepes, pH 7.4, 182 mOsm) for 5–6 days at 19 °C prior to experiments.
To activate NKCC1A and NKCC1B prior to the ^86Rb^+ uptake measurements aimed at measuring NKCC-mediated fluxes, hNKCC1A- or hNKCC1B-expressing oocytes or uninjected control oocytes (4–13 oocytes per well) were pre-incubated for 30 min at room temperature in a K^+-free solution (containing in mM: 5 choline chloride, 95 NaCl, 1 MgCl2, 1 CaCl2, 10 Hepes, pH 7.4, 207 mOsm), which causes shrinkage of the oocyte and thus activation of NKCC1A[22]. […] The radioactivity was determined by liquid scintillation β-counting with Aquasafe 300 Plus scintillation cocktail (Zinsser Analytic GmbH, Frankfurt, Germany) using a Microbeta Trilux (Perkin Elmer). hNKCC1-mediated K^+ uptake was assessed as ([fluxNKCC1-expressing oocytes in presence of x µM drug]−[fluxuninjected oocytes in presence of x µM drug]), in order to correct for endogenous NKCC activity. […]
Significance of differences in transport activity of hNKCC1A or hNKCC1B expressing oocytes vs. uninjected oocytes were analyzed by the Kruskal-Wallis test followed by Dunn’s multiple comparisons test. […]

The subject of a further data set is NKCC2. Also noted: method as in ref Palfrey et al.[48]; Schlatter et al.[23]; Frelin et al.[49]; O’Grady et al.[50]; Glanville et al.[51]; Hannaert et al.[52]. To be noted: Rabbit kidney TAL; rat kidney TAL; NKCC2 isoforms not differentiated; ref Palfrey et al.[48]; Schlatter et al.[23]; Frelin et al.[49]; O’Grady et al.[50]; Glanville et al.[51]; Hannaert et al.[52]; cited from earlier work.

The test system of a further data set is hNKCC2 isoform A. Particulars: Xenopus oocytes; ref Payne et al.[57]; Isenring et al.[58]; Plata et al.[59]; Carota et al.[56]; Lykke et al.[60]; Lykke et al.[29]; read-out: IC50 (µM) NKCC2 (hA); cited from earlier work.
Another data set relates to mNKCC2 isoform B. Also noted: method as in ref Payne et al.[57]; Isenring et al.[58]; Plata et al.[59]; Carota et al.[56]; Lykke et al.[60]; Lykke et al.[29]. Particulars: Xenopus oocytes; ref Payne et al.[57]; Isenring et al.[58]; Plata et al.[59]; Carota et al.[56]; Lykke et al.[60]; Lykke et al.[29]; read-out: IC50 (µM) NKCC2 (mB); cited from earlier work.
The test system of another data set is hNKCC2 isoform B. To be noted: Xenopus oocytes; ref Payne et al.[57]; Isenring et al.[58]; Plata et al.[59]; Carota et al.[56]; Lykke et al.[60]; Lykke et al.[29]; read-out: IC50 (µM) NKCC2 (hB); cited from earlier work.
Another data set deals with hNKCC1. Also noted: method as in Gill et al.[47]. To be noted: Rb+ flux, Ion Channel Reader technology, HEK cell line; ref Gill et al.[47]; cited from earlier work.
On the set-up of data set [2]: method as in DrugBank database. To be noted: ref DrugBank database; cited from earlier work.
Data set [3] addresses T1, hNKCC1A. Also noted: method as in ref Payne et al.[57]; Isenring et al.[58]; Plata et al.[59]; Carota et al.[56]; Lykke et al.[60]; Lykke et al.[29]. Particulars: Xenopus oocytes; activated state; ref Payne et al.[57]; Isenring et al.[58]; Plata et al.[59]; Carota et al.[56]; Lykke et al.[60]; Lykke et al.[29]; read-out: IC50 (µM) NKCC1 (hA); cited from earlier work.

Consider `CCCCNc1cc(C(=O)O)cc(S(N)(=O)=O)c1Oc1ccccc1` [Bumetanide], for which the 50% inhibitory concentration (IC50) was 3.4 µM with mNKCC2 isoform F; 0.25 to 0.6 µM in the data set with NKCC1; 0.945 µM at hNKCC1A [1]; 0.2 to 0.33 µM in the data set with NKCC2; 0.54 to 4 µM with hNKCC2 isoform A; 0.6 µM in the data set with mNKCC2 isoform B. For the same compound, the IC50 is 0.22 µM with hNKCC2 isoform B, 1160 nM with hNKCC1 and 0.68 µM at hNKCC1A [3]. For the same compound, in [2], the “Lipophilicity (logP)” value is reported as 2.7.
